12 compounds from ChEMBL document CHEMBL1155486, “From 6-aminoquinolone antibacterials to 6-amino-7-thiopyranopyridinylquinolone ethyl esters as inhibitors of Staphylococcus aureus multidrug efflux pumps” (2010) can be followed below.

Converted amounts (≈) assume the structure as drawn.

Holding throughout (assay type): functional
For test [1], the system named is Staphylococcus aureus. Briefly: Antibacterial activity against Staphylococcus aureus SA-1199B norA++ and A116E GrlA mutation by microdilution technique. Background: Broth dilution looks for growth in wells or tubes with falling amounts of substance.
Test [2] concerns Escherichia coli. Put plainly: Antibacterial activity against Escherichia coli ATCC 25922 by microdilution technique.
In test [3] the test system is Staphylococcus aureus. Put plainly: Antibacterial activity against Staphylococcus aureus SA-K1904 bearing norA++ efficient mutation by microdilution technique.
The test system of test [4] is Staphylococcus aureus. Put plainly: Antibacterial activity against Staphylococcus aureus SA-K1902 bearing norA- deficient mutation by microdilution technique.
For test [5], the system named is Staphylococcus aureus. Briefly: Antibacterial activity against Staphylococcus aureus ATCC 25923 by microdilution technique.
The subject of test [6] is Staphylococcus aureus. Put plainly: Antibacterial activity against methicillin and ciprofloxacin-resistant Staphylococcus aureus 25A by microdilution technique.
Test [7] relates to Staphylococcus aureus. Put plainly: Antibacterial activity against wild-type norA expressing Staphylococcus aureus SA-1199 by microdilution technique.
In test [8] the test system is Staphylococcus aureus. Put plainly: Antibacterial activity against Staphylococcus aureus K1035 bearing wild-type GyrA and S80F mutant GrlA by microdilution technique.
In test [9] the test system is Staphylococcus aureus. Put plainly: Antibacterial activity against Staphylococcus aureus K1628 bearing S84L mutant GyrA and S80F mutant GrlA by microdilution technique.
The subject of test [10] is Staphylococcus aureus. Briefly: Antibacterial activity against Staphylococcus aureus K1640 bearing S84L mutant GyrA and S80Y mutant GrlA by microdilution technique.
In test [11] the test system is Staphylococcus aureus. Briefly: Antibacterial activity against Staphylococcus aureus K1134 bearing wild-type GyrA and S80Y mutant GrlA by microdilution technique.
Test [12] deals with Staphylococcus aureus. Briefly: Antibacterial activity against Staphylococcus aureus K1305 bearing wild-type GyrA and E84K mutant GrlA by microdilution technique.

The term MIC denotes the smallest concentration in the dilution series that meets the test's criterion for growth inhibition. In the case of `Nc1cc2c(=O)c(C(=O)O)cn(C3CC3)c2cc1N1CCC2=C(C1)/C(=N/O)CCS2`, the minimal inhibitory concentration (MIC) in [1] stood at 12.5 µg/mL (≈ 29.3 µM); in test [2], 2 µg/mL (≈ 4.69 µM); in [3] it was 6.25 µg/mL (≈ 14.7 µM); in test [4], 1.56 µg/mL (≈ 3.66 µM); in test [5] it was 2 µg/mL (≈ 4.69 µM); in test [6] it was 16 µg/mL (≈ 37.5 µM). It took 1.56 µg/mL (≈ 3.66 µM) to inhibit growth in test [7] (MIC).

On to `O=C1CCSC2=C1CN(c1cc3c(cc1F)c(=O)c(C(=O)O)cn3C1CC1)CC2`, for which the MIC in test [1] was 3.13 µg/mL (≈ 7.55 µM); in test [2], 8 µg/mL (≈ 19.3 µM); in test [3], 0.63 µg/mL (≈ 1.52 µM); in test [4], 0.31 µg/mL (≈ 0.748 µM); in [5] it was 0.08 µg/mL (≈ 0.193 µM); in test [6], greater than 128 µg/mL. This compound came in with an MIC in test [7] of 1.56 µg/mL (≈ 3.76 µM).

For the compound `CO/N=C1\CCSC2=C1CN(c1cc3c(cc1F)c(=O)c(C(=O)O)cn3C1CC1)CC2`, the MIC is 2.5 µg/mL (≈ 5.64 µM) in test [1]; 32 µg/mL (≈ 72.2 µM) in test [2]; 1.25 µg/mL (≈ 2.82 µM) in test [3]; 1.25 µg/mL (≈ 2.82 µM) in [4]; 0.25 µg/mL (≈ 0.564 µM) in test [5]; 1 µg/mL (≈ 2.25 µM) in test [6]. Moreover, in test [7], the MIC turned out to be 1.25 µg/mL (≈ 2.82 µM).

Regarding `CO/N=C1\CCSC2=C1CN(c1c(N)cc3c(=O)c(C(=O)O)cn(C4CC4)c3c1C)CC2`, the MIC worked out at 0.31 µg/mL (≈ 0.682 µM) in test [1]; 16 µg/mL (≈ 35.2 µM) in test [2]; 0.31 µg/mL (≈ 0.682 µM) in [3]; 0.31 µg/mL (≈ 0.682 µM) in test [4]; 1.25 µg/mL (≈ 2.75 µM) in test [8]; 0.16 µg/mL (≈ 0.352 µM) in test [5]. Moreover, the MIC was greater than 10 µg/mL in [9]; greater than 10 µg/mL in [10]; 2.5 µg/mL (≈ 5.5 µM) in test [11]; 1.25 µg/mL (≈ 2.75 µM) in [12]; 32 µg/mL (≈ 70.4 µM) in test [6]; 0.31 µg/mL (≈ 0.682 µM) in test [7].

For the compound `CC1CSC2=C(CN(c3cc4c(cc3F)c(=O)c(C(=O)O)cn4C3CC3)CC2)C1=O` (centres undefined), the MIC in [1] is 0.16 µg/mL (≈ 0.373 µM); in test [2] it was 8 µg/mL (≈ 18.7 µM); in test [3] it was 0.16 µg/mL (≈ 0.373 µM); in test [4], 0.16 µg/mL (≈ 0.373 µM); in [8], 1.25 µg/mL (≈ 2.92 µM); in test [5], 0.31 µg/mL (≈ 0.723 µM). For the same compound, the MIC in test [9] is greater than 10 µg/mL; in [10], greater than 10 µg/mL; in test [11], 1.25 µg/mL (≈ 2.92 µM); in [12] it was 1.25 µg/mL (≈ 2.92 µM); in [6] it was 32 µg/mL (≈ 74.7 µM); in [7] it was 0.08 µg/mL (≈ 0.187 µM).

For the compound `COc1c(N2C[C@@H]3CCCN[C@@H]3C2)c(F)cc2c(=O)c(C(=O)O)cn(C3CC3)c12` [MOXIFLOXACIN], the MIC is 0.25 µg/mL (≈ 0.623 µM) in test [1]; less than 0.08 µg/mL in test [2]; 0.08 µg/mL (≈ 0.199 µM) in test [3]; 0.08 µg/mL (≈ 0.199 µM) in test [4]; 0.31 µg/mL (≈ 0.772 µM) in test [8]; less than 0.08 µg/mL in test [5]. The MIC in test [9] was 5 µg/mL (≈ 12.5 µM); in [10], 2.5 µg/mL (≈ 6.23 µM); in [11], 0.31 µg/mL (≈ 0.772 µM); in [12], 0.31 µg/mL (≈ 0.772 µM); in test [6], 2 µg/mL (≈ 4.98 µM); in test [7] it was 0.08 µg/mL (≈ 0.199 µM).

For `O=C(O)c1cn(C2CC2)c2cc(N3CCNCC3)c(F)cc2c1=O` [CIPROFLOXACIN], the MIC in [1] was 10 µg/mL (≈ 30.2 µM); in [2] it was no more than 0.12 µg/mL; in test [3] it was 2.5 µg/mL (≈ 7.54 µM); in test [4], 0.31 µg/mL (≈ 0.936 µM); in test [8], 2.5 µg/mL (≈ 7.54 µM); in [5], 0.5 µg/mL (≈ 1.51 µM). The MIC is greater than 10 µg/mL in test [9]; greater than 10 µg/mL in test [10]; 2.5 µg/mL (≈ 7.54 µM) in test [11]; 2.5 µg/mL (≈ 7.54 µM) in [12]; 32 µg/mL (≈ 96.6 µM) in test [6]; 0.31 µg/mL (≈ 0.936 µM) in [7].

As to `O=C(O)c1cn(C2CC2)c2cc(N3CCC4=C(C3)C(O)CCS4)c(F)cc2c1=O` (centres undefined), the MIC was found to be 0.16 µg/mL (≈ 0.384 µM) in test [1]; 64 µg/mL (≈ 154 µM) in [2]; 0.16 µg/mL (≈ 0.384 µM) in test [3]; 0.04 µg/mL (≈ 0.096 µM) in test [4]; 0.63 µg/mL (≈ 1.51 µM) in test [8]; 0.08 µg/mL (≈ 0.192 µM) in test [5]. The MIC in [9] was greater than 10 µg/mL; in test [10] it was greater than 10 µg/mL; in test [11] it was 1.25 µg/mL (≈ 3 µM); in test [12] it was 0.63 µg/mL (≈ 1.51 µM); in [6], 8 µg/mL (≈ 19.2 µM); in test [7] it was 0.04 µg/mL (≈ 0.096 µM).

For `Nc1cc2c(=O)c(C(=O)O)cn(C3CC3)c2cc1N1CCC2=C(C1)C(=O)CCS2`, the MIC was 25 µg/mL (≈ 60.8 µM) in test [1]; 128 µg/mL (≈ 311 µM) in test [2]; 6.25 µg/mL (≈ 15.2 µM) in test [3]; 3.13 µg/mL (≈ 7.61 µM) in [4]; 6.25 µg/mL (≈ 15.2 µM) in [5]; greater than 128 µg/mL in test [6]. The compound also returned an MIC in [7] of 1.56 µg/mL (≈ 3.79 µM).

With `CO/N=C1/C2=C(CCN(c3cc4c(cc3F)c(=O)c(C(=O)O)cn4C3CC3)C2)SCC1C` (centres undefined), the minimum inhibitory concentration (MIC) in [1] was determined as 5 µg/mL (≈ 10.9 µM); in [2] it was 64 µg/mL (≈ 140 µM); in test [3], 2.5 µg/mL (≈ 5.46 µM); in test [4], 2.5 µg/mL (≈ 5.46 µM); in test [5], 2 µg/mL (≈ 4.37 µM); in test [6], 8 µg/mL (≈ 17.5 µM). The same compound returned an MIC in [7] of 2.5 µg/mL (≈ 5.46 µM).

As for `Cc1c(N2CCC3=C(C2)C(=O)CCS3)c(N)cc2c(=O)c(C(=O)O)cn(C3CC3)c12`, the MIC was 0.63 µg/mL (≈ 1.48 µM) in test [1]; 1 µg/mL (≈ 2.35 µM) in test [2]; 0.31 µg/mL (≈ 0.729 µM) in test [3]; 0.31 µg/mL (≈ 0.729 µM) in test [4]; 1.25 µg/mL (≈ 2.94 µM) in test [8]; 0.25 µg/mL (≈ 0.588 µM) in test [5]. The MIC in test [9] was greater than 10 µg/mL; in [10] it was greater than 10 µg/mL; in test [11] it was 1.25 µg/mL (≈ 2.94 µM); in test [12] it was 1.25 µg/mL (≈ 2.94 µM); in test [6], 4 µg/mL (≈ 9.4 µM); in test [7], 0.31 µg/mL (≈ 0.729 µM).

For the compound `CC1CSC2=C(CN(c3cc4c(cc3N)c(=O)c(C(=O)O)cn4C3CC3)CC2)C1=O` (centres undefined), the MIC in test [1] is 12.5 µg/mL (≈ 29.4 µM); in test [2] it was 64 µg/mL (≈ 150 µM); in test [3], 6.25 µg/mL (≈ 14.7 µM); in test [4], 1.56 µg/mL (≈ 3.67 µM); in test [5], 6.25 µg/mL (≈ 14.7 µM); in test [6], 16 µg/mL (≈ 37.6 µM). The same compound showed an MIC in test [7] of 3.13 µg/mL (≈ 7.36 µM).
